Measured values published in US6770597B2, “Benzohydrazide derivatives as herbicides and desiccant compositions containing them” (Ishihara Sangyo Kaisha, Ltd., priority 2002, dated 2004).

What was measured:
Assay type in all cases: in vivo
[1] = test system: field corn (Zea mays L., var. Dekalb 535, CORN); assay: Greenhouse herbicide screen, post-emerge application, crop damage rating; settings: POST emergent, 14 days after application, scale 0-100
Method in brief: (§1)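 Visual phytotoxicity scored 0–100 at 14 days, where 0 means no damage and 100 all plants dead. Compounds had been applied in acetone by track sprayer at 15–1000 g ai/ha in 187 l/ha.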

[2] = test system: upland rice (Oryza sp., var.Cocodrie, RICE); assay: as above; settings: POST emergent, 14 days after application, scale 0-100
Method in brief: as §1

[3] = test system: green foxtail (Setaria viridis, SETVI); assay: Greenhouse herbicide screen, pre-emerge application, phytotoxicity rating; settings: PRE emergent, 14 days after application, rating scale 0-100
Method in brief: as §1

[4] = test system: sicklepod (Cassia obtusifolia, CASOB); assay: as above; settings: PRE emergent, 14 days after application, rating scale 0-100
Method in brief: as §1

[5] = test system: redroot pigweed (Amaranthus retrofiexus, AMARE); assay: as above; settings: PRE emergent, 14 days after application, rating scale 0-100
Method in brief: as §1

[6] = test system: ivyleaf morningglory (Ipomoea hederacea, IPOHE); assay: as above; settings: PRE emergent, 14 days after application, rating scale 0-100
Method in brief: as §1

[7] = test system: large crabgrass (Digitaria sanguinalis, DIGSA); assay: as above; settings: PRE emergent, 14 days after application, rating scale 0-100
Method in brief: as §1

[8] = test system: johnsongrass (Sorghum halepense, SORHA); assay: as above; settings: PRE emergent, 14 days after application, rating scale 0-100
Method in brief: as §1

[9] = test system: barnyardgrass (Echinochloa crus-galli, ECHCG); assay: as above; settings: PRE emergent, 14 days after application, rating scale 0-100
Method in brief: as §1

[10] = test system: common ragweed (Ambrosia artemisiifolia L., AMBEL); assay: as above; settings: PRE emergent, 14 days after application, rating scale 0-100
Method in brief: as §1

[11] = test system: lambsquarters (Chenopodium album, CHEAL); assay: as above; settings: PRE emergent, 14 days after application, rating scale 0-100
Method in brief: as §1

[12] = test system: velvetleaf (Abutilon theophrasti, ABUTH); assay: as above; settings: PRE emergent, 14 days after application, rating scale 0-100
Method in brief: as §1

[13] = test system: cocklebur (Xanthium strumarium, XANST); assay: as above; settings: PRE emergent, 14 days after application, rating scale 0-100
Method in brief: as §1

[14] = test system: field corn (Zea mays L., var. Dekalb 535, CORN); assay: Greenhouse herbicide screen, pre-emerge application, crop damage rating; settings: PRE emergent, 14 days after application, rating scale 0-100
Method in brief: as §1

[15] = test system: upland rice (Oryza sp., var.Cocodrie, RICE); assay: as above; settings: PRE emergent, 14 days after application, rating scale 0-100
Method in brief: as §1

[16] = test system: green foxtail (Setaria viridis, SETVI); assay: Greenhouse herbicide screen, post-emerge application, phytotoxicity rating; settings: POST emergent, 14 days after application, scale 0-100
Method in brief: as §1

[17] = test system: sicklepod (Cassia obtusifolia, CASOB); assay: as above; settings: POST emergent, 14 days after application, scale 0-100
Method in brief: as §1

[18] = test system: redroot pigweed (Amaranthus retrofiexus, AMARE); assay: as above; settings: POST emergent, 14 days after application
Method in brief: as §1

[19] = test system: ivyleaf morningglory (Ipomoea hederacea, IPOHE); assay: as above; settings: POST emergent, 14 days after application, scale 0-100
Method in brief: as §1

[20] = test system: large crabgrass (Digitaria sanguinalis, DIGSA); assay: as above; settings: POST emergent, 14 days after application, scale 0-100
Method in brief: as §1

[21] = test system: johnsongrass (Sorghum halepense, SORHA); assay: as above; settings: POST emergent, 14 days after application, scale 0-100
Method in brief: as §1

[22] = test system: barnyardgrass (Echinochloa crus-galli, ECHCG); assay: as above; settings: POST emergent, 14 days after application, scale 0-100
Method in brief: as §1

[23] = test system: common ragweed (Ambrosia artemisiifolia L., AMBEL); assay: as above; settings: POST emergent, 14 days after application, scale 0-100
Method in brief: as §1

[24] = test system: lambsquarters (Chenopodium album, CHEAL); assay: as above; settings: POST emergent, 14 days after application, scale 0-100
Method in brief: as §1

[25] = test system: velvetleaf (Abutilon theophrasti, ABUTH); assay: as above; settings: POST emergent, 14 days after application, scale 0-100
Method in brief: as §1

[26] = test system: cocklebur (Xanthium strumarium, XANST); assay: as above; settings: POST emergent, 14 days after application, scale 0-100
Method in brief: as §1

[27] = 63 g ai/ha, scale 0-100 (0 no damage, 100 complete death)

## CC(=NN=C(OC(=O)C(Cl)Cl)c1cc(-n2c(=O)cc(C(F)(F)F)n(C)c2=O)c(F)cc1Cl)C(C)(C)C [Compound 5-4]
[1]; 63 g ai/ha
  crop damage rating CORN: 60
[2]; 63 g ai/ha
  crop damage rating RICE: 10
[3]; 63 g ai/ha
  phytotoxicity rating SETVI: 50
[4]; 63 g ai/ha
  phytotoxicity rating CASOB: 30
[5]; 63 g ai/ha
  phytotoxicity rating AMARE: 100
[6]; 63 g ai/ha
  phytotoxicity rating IPOHE: 100
[7]; 63 g ai/ha
  phytotoxicity rating DIGSA: 55
[8]; 63 g ai/ha
  phytotoxicity rating SORHA: 85
[9]; 63 g ai/ha
  phytotoxicity rating ECHCG: 40
[10]; 63 g ai/ha
  phytotoxicity rating AMBEL: 70
[11]; 63 g ai/ha
  phytotoxicity rating CHEAL: 100
[12]; 63 g ai/ha
  phytotoxicity rating ABUTH: 100
[13]; 63 g ai/ha
  phytotoxicity rating XANST: 40
[14]; 63 g ai/ha
  crop damage rating CORN: 10
[15]; 63 g ai/ha
  crop damage rating RICE: 55
[16]; 63 g ai/ha
  phytotoxicity rating SETVI: 55
[17]; 63 g ai/ha
  phytotoxicity rating CASOB: 50
[18]; [27]
  phytotoxicity rating AMARE: 95
[19]; 63 g ai/ha
  phytotoxicity rating IPOHE: 100
[20]; 63 g ai/ha
  phytotoxicity rating DIGSA: 75
[21]; 63 g ai/ha
  phytotoxicity rating SORHA: 30
[22]; 63 g ai/ha
  phytotoxicity rating ECHCO: 90
[23]; 63 g ai/ha
  phytotoxicity rating AMBEL: 95
[24]; 63 g ai/ha
  phytotoxicity rating CHEAL: 70
[25]; 63 g ai/ha
  phytotoxicity rating ABUTH: 99
[26]; 63 g ai/ha
  phytotoxicity rating XANST: 65

## C#CCOC(=NN=C(C(C)(C)C)C(C)(C)C)c1cc(-n2c(=O)cc(C(F)(F)F)n(C)c2=O)c(F)cc1Cl [Compound 5-7]
[1]; 63 g ai/ha
  crop damage rating CORN: 0
[1]; 250 g ai/ha
  crop damage rating CORN: 15
[2]; 63 g ai/ha
  crop damage rating RICE: 10
[2]; 250 g ai/ha
  crop damage rating RICE: 0
[3]; 63 g ai/ha
  phytotoxicity rating SETVI: 30
[3]; 250 g ai/ha
  phytotoxicity rating SETVI: 80
[4]; 63 g ai/ha
  phytotoxicity rating CASOB: 0
[4]; 250 g ai/ha
  phytotoxicity rating CASOB: 50
[5]; 63 g ai/ha
  phytotoxicity rating AMARE: 60
[5]; 250 g ai/ha
  phytotoxicity rating AMARE: 100
[6]; 63 g ai/ha
  phytotoxicity rating IPOHE: 0
[6]; 250 g ai/ha
  phytotoxicity rating IPOHE: 30
[7]; 63 g ai/ha
  phytotoxicity rating DIGSA: 0
[7]; 250 g ai/ha
  phytotoxicity rating DIGSA: 50
[8]; 63 g ai/ha
  phytotoxicity rating SORHA: 15
[8]; 250 g ai/ha
  phytotoxicity rating SORHA: 20
[9]; 63 g ai/ha
  phytotoxicity rating ECHCG: 0
[9]; 250 g ai/ha
  phytotoxicity rating ECHCG: 0
[10]; 63 g ai/ha
  phytotoxicity rating AMBEL: 0
[10]; 250 g ai/ha
  phytotoxicity rating AMBEL: 50
[11]; 63 g ai/ha
  phytotoxicity rating CHEAL: 100
[11]; 250 g ai/ha
  phytotoxicity rating CHEAL: 100
[12]; 63 g ai/ha
  phytotoxicity rating ABUTH: 50
[12]; 250 g ai/ha
  phytotoxicity rating ABUTH: 99
[13]; 63 g ai/ha
  phytotoxicity rating XANST: 0
[13]; 250 g ai/ha
  phytotoxicity rating XANST: 0
[14]; 63 g ai/ha
  crop damage rating CORN: 0
[14]; 250 g ai/ha
  crop damage rating CORN: 10
[15]; 63 g ai/ha
  crop damage rating RICE: 0
[15]; 250 g ai/ha
  crop damage rating RICE: 0
[16]; 63 g ai/ha
  phytotoxicity rating SETVI: 50
[16]; 250 g ai/ha
  phytotoxicity rating SETVI: 55
[17]; 63 g ai/ha
  phytotoxicity rating CASOB: 50
[17]; 250 g ai/ha
  phytotoxicity rating CASOB: 50
[18]; [27]
  phytotoxicity rating AMARE: 70
[18]; 250 g ai/ha, scale 0-100
  phytotoxicity rating AMARE: 99
[19]; 63 g ai/ha
  phytotoxicity rating IPOHE: 60
[19]; 250 g ai/ha
  phytotoxicity rating IPOHE: 70
[20]; 63 g ai/ha
  phytotoxicity rating DIGSA: 0
[20]; 250 g ai/ha
  phytotoxicity rating DIGSA: 50
[21]; 63 g ai/ha
  phytotoxicity rating SORHA: 0
[21]; 250 g ai/ha
  phytotoxicity rating SORHA: 15
[22]; 63 g ai/ha
  phytotoxicity rating ECHCO: 35
[22]; 250 g ai/ha
  phytotoxicity rating ECHCO: 55
[23]; 63 g ai/ha
  phytotoxicity rating AMBEL: 50
[23]; 250 g ai/ha
  phytotoxicity rating AMBEL: 55
[24]; 63 g ai/ha
  phytotoxicity rating CHEAL: 70
[24]; 250 g ai/ha
  phytotoxicity rating CHEAL: 85
[25]; 63 g ai/ha
  phytotoxicity rating ABUTH: 30
[25]; 250 g ai/ha
  phytotoxicity rating ABUTH: 70
[26]; 63 g ai/ha
  phytotoxicity rating XANST: 0
[26]; 250 g ai/ha
  phytotoxicity rating XANST: 55
